The test system of data set [1] is HeLa. The experiment in a line: Cytotoxicity against human HeLa cells after 24 hrs by XTT assay. It counts as functional, cell-based.
The nature of data set [2]: Cellular uptake in perinuclear region of cytoplasm in human HeLa cells at 0.5 uM after 10 mins by fluorescence microscopic analysis. It counts as ADME, cell-based.
The test system of data set [3] is HeLa. The experiment in a line: Cellular uptake in human HeLa cells at 0.5 uM at 37 degC after 30 mins by fluorescence microscopic analysis. It counts as ADME, cell-based. To be noted: 0.5 h.
In data set [4] the test system is HeLa. The experiment in a line: Cellular uptake in human HeLa cell lysate at 1 uM after 1 hr by fluorescence spectroscopic analysis. It is filed as ADME, cell-based.
Data set [5] in a line: Cellular uptake in human HeLa cell mitochondria at 1 uM by […]-based fluorescence microscopic analysis. It counts as ADME.
The nature of data set [6]: Cellular uptake in human HeLa cell golgi complex at 1 uM by BODIPY TR-ceramide-based fluorescence microscopic analysis. It is filed as ADME.
A short description of data set [7]: Cellular uptake in perinuclear region of cytoplasm in human HeLa cells at 0.13 to 1 uM after 1 hr by fluorescence microscopic analysis. It is filed as ADME, cell-based.
Data set [8] can be described thus: Cellular uptake in human HeLa cell endoplasmic reticulum at 1 uM by […] staining-based fluorescence microscopic analysis. It is filed as ADME.
Data set [9] has as its system HeLa. The experiment in a line: Cellular uptake in human HeLa cells at 0.5 uM at 4 degC after 30 mins by fluorescence microscopic analysis. It is filed as ADME, cell-based. The settings on record: 0.5 h.
Data set [10] can be described thus: Cellular uptake in perinuclear region of cytoplasm in human HeLa cells at 1 uM after 1 hr by fluorescence microscopic analysis. It counts as ADME, cell-based.
Data set [11] can be described thus: Cytotoxicity against human NCI60 cells. It counts as functional, cell-based.

Activity calls are given as the source filed them. No cut-off for these calls is given here.

As a reminder, the IC50 is the concentration needed to halve the response being measured. In the case of `COc1ccc(C(=O)O[C@H]2[C@H](O[C@@H]3[C@@H](OC(C)=O)[C@H](O[C@H]4C[C@H]5[C@@H]6CC=C7C[C@@H](O)CC[C@]7(C)[C@H]6CC[C@]5(C)[C@@]4(O)[C@H](C)C(=O)CCC(C)C)OC[C@@H]3O)OC[C@@H](O)[C@@H]2OC(=O)CN(C)c2ccc(S(=O)(=O)N(C)C)c3nonc23)cc1`, half-maximal inhibition in the data set with HeLa [1] (IC50) required 5 nM. For the same compound, the Drug uptake result in data set [2] is given as “Active”; with HeLa [3], “Active”; with HeLa [4] it was “Active”; in data set [5] it was “Not Active”; in [6], “Active”; in data set [7], “Active”. In addition, the Drug uptake result in [8] is “Active”; with HeLa [9], “Not Active”.
Turning to `COC(=O)CN(C)c1ccc(S(=O)(=O)N(C)C)c2nonc12`, the inhibition entry in the data set on HeLa [1] was “inactive”. Further, the Drug uptake entry in data set [10] was “Not Active”.
For the compound `COc1ccc(C(=O)O[C@H]2[C@H](O[C@@H]3[C@@H](OC(C)=O)[C@H](O[C@H]4C[C@H]5[C@@H]6CC=C7C[C@@H](O)CC[C@]7(C)[C@H]6CC[C@]5(C)[C@@]4(O)[C@H](C)C(=O)CCC(C)C)OC[C@@H]3O)OC[C@@H](O)[C@@H]2O)cc1`, the IC50 was determined as 0.78 nM in [11] and 2.6 nM with HeLa [1].

The values are drawn from ChEMBL document CHEMBL3232784, “Fluorescent analog of OSW-1 and its cellular localization” (Bioorg Med Chem Lett, 2014).
